Measured values published in ChEMBL document CHEMBL5352410, “Discovery of novel selenium-containing azole derivatives as antifungal agents by exploiting the hydrophobic cleft of CYP51” (Eur J Med Chem, 2022).
Converted amounts (≈) assume the structure as drawn.

Experiments:
Nakaseomyces glabratus = assay: Antifungal activity against Candida glabrata by CLSI based broth microdilution method; format: functional
Candida albicans [1] = assay: Antifungal activity against FCZ-resistant Candida albicans 632 by CLSI based broth microdilution method; format: functional
[2] = target: T1, Lanosterol 14-alpha demethylase (Candida albicans (strain SC5314 / ATCC MYA-2876) (Yeast), UniProt P10613); assay: Inhibition of CYP51 of Candida albicans ATCC SC5314 assessed as decrease in ergosterol level by measuring residual activity at 2 ug/ml incubated for 16 hrs by GC-MS analysis (reference value: 98.3 %); conditions: at 2 µg/mL
T1 sequence (P10613 whole entry): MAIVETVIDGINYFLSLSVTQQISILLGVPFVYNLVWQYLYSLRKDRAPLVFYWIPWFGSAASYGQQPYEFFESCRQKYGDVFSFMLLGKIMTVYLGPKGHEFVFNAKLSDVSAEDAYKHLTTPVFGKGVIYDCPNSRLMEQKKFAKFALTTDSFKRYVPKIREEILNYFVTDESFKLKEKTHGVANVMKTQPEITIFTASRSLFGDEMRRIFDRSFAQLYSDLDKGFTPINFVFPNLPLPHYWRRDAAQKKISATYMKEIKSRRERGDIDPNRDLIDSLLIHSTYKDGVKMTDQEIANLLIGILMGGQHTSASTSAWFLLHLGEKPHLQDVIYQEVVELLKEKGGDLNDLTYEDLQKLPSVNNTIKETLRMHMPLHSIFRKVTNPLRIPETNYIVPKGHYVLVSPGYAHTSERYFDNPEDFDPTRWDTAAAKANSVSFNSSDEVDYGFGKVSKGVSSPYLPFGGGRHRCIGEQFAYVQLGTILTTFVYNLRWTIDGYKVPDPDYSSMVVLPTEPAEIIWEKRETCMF

[3] = target: T1, Lanosterol 14-alpha demethylase; assay: Inhibition of CYP51 of Candida albicans ATCC SC5314 assessed as increase in eburicol level at 8 ug/ml incubated for 16 hrs by GC-MS analysis (reference value: 0 %); parameters: scale not given: the % may be the effect or the level left; conditions: at 8 µg/mL
[4] = target: T1, Lanosterol 14-alpha demethylase; assay: Inhibition of CYP51 of Candida albicans ATCC SC5314 assessed as decrease in ergosterol level by measuring residual activity at 1 ug/ml incubated for 16 hrs by GC-MS analysis (reference value: 98.3 %); conditions: at 1 µg/mL
[5] = target: T1, Lanosterol 14-alpha demethylase; assay: Inhibition of CYP51 of Candida albicans ATCC SC5314 assessed as increase in obtusifoliol level at 2 ug/ml incubated for 16 hrs by GC-MS analysis (reference value: 0 %); parameters: scale not given: the % may be the effect or the level left; conditions: at 2 µg/mL
Candida albicans [6] = assay: Antifungal activity against FCZ-resistant Candida albicans 901 by CLSI based broth microdilution method; format: functional
Candida albicans [7] = assay: Antibiofilm activity against Candida albicans SC5314 assessed as sessile minimum inhibitory concentration measured after 3 hrs by XTT assay; format: functional
[8] = target: T1, Lanosterol 14-alpha demethylase; assay: Inhibition of CYP51 of Candida albicans ATCC SC5314 assessed as increase in obtusifoliol level at 4 ug/ml incubated for 16 hrs by GC-MS analysis (reference value: 0 %); parameters: scale not given: the % may be the effect or the level left; conditions: at 4 µg/mL
Candida albicans [9] = assay: Antifungal activity against Candida albicans by CLSI based broth microdilution method; format: functional
[10] = target: T1, Lanosterol 14-alpha demethylase; assay: Inhibition of CYP51 of Candida albicans ATCC SC5314 assessed as increase in eburicol level at 1 ug/ml incubated for 16 hrs by GC-MS analysis (reference value: 0 %); parameters: scale not given: the % may be the effect or the level left; conditions: at 1 µg/mL
Candida albicans [11] = assay: Antifungal activity against FCZ-resistant Candida albicans 17# by CLSI based broth microdilution method; format: functional
Candida albicans [12] = assay: Antibiofilm activity against Candida albicans CPCC400616 assessed as sessile minimum inhibitory concentration measured after 3 hrs by XTT assay; format: functional
Candida albicans [13] = assay: Antibiofilm activity against Candida albicans CPCC400616 assessed as sessile minimum inhibitory concentration measured after 24 hrs by XTT assay; format: functional
Aspergillus fumigatus = assay: Antifungal activity against Aspergillus fumigatus by CLSI based broth microdilution method; format: functional
Pichia kudriavzevii = assay: Antifungal activity against Pichia kudriavzevii by CLSI based broth microdilution method; format: functional
[14] = target: T1, Lanosterol 14-alpha demethylase; assay: Inhibition of CYP51 of Candida albicans ATCC SC5314 assessed as increase in eburicol level at 4 ug/ml incubated for 16 hrs by GC-MS analysis (reference value: 0 %); parameters: scale not given: the % may be the effect or the level left; conditions: at 4 µg/mL
[15] = target: T1, Lanosterol 14-alpha demethylase; assay: Inhibition of CYP51 of Candida albicans ATCC SC5314 assessed as decrease in ergosterol level by measuring residual activity at 4 ug/ml incubated for 16 hrs by GC-MS analysis (reference value: 98.3 %); conditions: at 4 µg/mL
[Candida] zeylanoides = Antifungal activity against Candida zeylanoides by CLSI based broth microdilution method; format: functional; conditions: Dujonia zeylanoides
Cryptococcus neoformans = assay: Antifungal activity against Cryptococcus neoformans by CLSI based broth microdilution method; format: functional
[16] = target: T1, Lanosterol 14-alpha demethylase; assay: Inhibition of CYP51 of Candida albicans ATCC SC5314 assessed as increase in lanosterol level at 2 ug/ml incubated for 16 hrs by GC-MS analysis (reference value: 1.7 %); parameters: scale not given: the % may be the effect or the level left; conditions: at 2 µg/mL
[17] = target: T1, Lanosterol 14-alpha demethylase; assay: Inhibition of CYP51 of Candida albicans ATCC SC5314 assessed as increase in lanosterol level at 8 ug/ml incubated for 16 hrs by GC-MS analysis (reference value: 1.7 %); parameters: scale not given: the % may be the effect or the level left; conditions: at 8 µg/mL
Candida parapsilosis = assay: Antifungal activity against Candida parapsilosis by CLSI based broth microdilution method; format: functional; conditions: Lodderomyces parapsilosis
[18] = target: T1, Lanosterol 14-alpha demethylase; assay: Inhibition of CYP51 of Candida albicans ATCC SC5314 assessed as increase in obtusifoliol level at 1 ug/ml incubated for 16 hrs by GC-MS analysis (reference value: 0 %); parameters: scale not given: the % may be the effect or the level left; conditions: at 1 µg/mL
Candida albicans [19] = assay: Antibiofilm activity against Candida albicans SC5314 assessed as sessile minimum inhibitory concentration measured after 24 hrs by XTT assay; format: functional
[20] = target: T1, Lanosterol 14-alpha demethylase; assay: Inhibition of CYP51 of Candida albicans ATCC SC5314 assessed as increase in eburicol level at 2 ug/ml incubated for 16 hrs by GC-MS analysis (reference value: 0 %); parameters: scale not given: the % may be the effect or the level left; conditions: at 2 µg/mL
Candida albicans [21] = assay: Antibiofilm activity against Candida albicans CPCC400616 assessed as sessile minimum inhibitory concentration measured after 1.5 hrs by XTT assay; format: functional
Candida albicans [22] = assay: Antifungal activity against Candida albicans sc5314 by CLSI based broth microdilution method; format: functional
[23] = target: T1, Lanosterol 14-alpha demethylase; assay: Inhibition of CYP51 of Candida albicans ATCC SC5314 assessed as increase in lanosterol level at 4 ug/ml incubated for 16 hrs by GC-MS analysis (reference value: 1.7 %); parameters: scale not given: the % may be the effect or the level left; conditions: at 4 µg/mL
[24] = target: T1, Lanosterol 14-alpha demethylase; assay: Inhibition of CYP51 of Candida albicans ATCC SC5314 assessed as increase in lanosterol level at 1 ug/ml incubated for 16 hrs by GC-MS analysis (reference value: 1.7 %); parameters: scale not given: the % may be the effect or the level left; conditions: at 1 µg/mL
Candida albicans [25] = assay: Antifungal activity against FCZ-resistant Candida albicans 904 by CLSI based broth microdilution method; format: functional
Candida albicans [26] = assay: Antibiofilm activity against Candida albicans SC5314 assessed as sessile minimum inhibitory concentration measured after 6 hrs by XTT assay; format: functional
Candida albicans [27] = assay: Antibiofilm activity against Candida albicans CPCC400616 assessed as sessile minimum inhibitory concentration measured after 6 hrs by XTT assay; format: functional
[28] = target: T1, Lanosterol 14-alpha demethylase; assay: Inhibition of CYP51 of Candida albicans ATCC SC5314 assessed as decrease in ergosterol level by measuring residual activity at 8 ug/ml incubated for 16 hrs by GC-MS analysis (reference value: 98.3 %); conditions: at 8 µg/mL
[29] = target: T1, Lanosterol 14-alpha demethylase; assay: Inhibition of CYP51 of Candida albicans ATCC SC5314 assessed as increase in obtusifoliol level at 8 ug/ml incubated for 16 hrs by GC-MS analysis (reference value: 0 %); parameters: scale not given: the % may be the effect or the level left; conditions: at 8 µg/mL
Candida albicans [30] = assay: Antibiofilm activity against Candida albicans SC5314 assessed as sessile minimum inhibitory concentration measured after 1.5 hrs by XTT assay; format: functional
Candida albicans [31] = assay: Antifungal activity against FCZ-resistant Candida albicans CaR by CLSI based broth microdilution method; format: functional

## OC(Cn1cncn1)(Cn1cncn1)c1ccc(F)cc1F [FLUCONAZOLE]
Nakaseomyces glabratus
  MIC: 32 µg/mL (≈ 104 µM)
Candida albicans [1]
  MIC: > 64 µg/mL
[2]
  Activity: 2.5%
[3]
  Activity: 69.9%
[4]
  Activity: 3.9%
[5]
  Activity: 13.1%
Candida albicans [6]
  MIC: > 64 µg/mL
Candida albicans [7]
  MIC50: > 1020 µg/mL
  MIC80: > 1020 µg/mL
[8]
  Activity: 12.5%
Candida albicans [9]
  MIC: 4 µg/mL (≈ 13.1 µM)
[10]
  Activity: 67.3%
Candida albicans [11]
  MIC: > 64 µg/mL
Candida albicans [12]
  MIC50: > 1020 µg/mL
  MIC80: > 1020 µg/mL
Candida albicans [13]
  MIC50: > 1020 µg/mL
  MIC80: > 1020 µg/mL
Aspergillus fumigatus
  MIC: > 64 µg/mL
Pichia kudriavzevii
  MIC: 32 µg/mL (≈ 104 µM)
[14]
  Activity: 69.6%
[15]
  Activity: 2.5%
[Candida] zeylanoides
  MIC: 2 µg/mL (≈ 6.53 µM)
Cryptococcus neoformans
  MIC: 4 µg/mL (≈ 13.1 µM)
[16]
  Activity: 15.7%
[17]
  Activity: 14.3%
Candida parapsilosis
  MIC: 4 µg/mL (≈ 13.1 µM)
[18]
  Activity: 13.9%
Candida albicans [19]
  MIC50: > 1020 µg/mL
  MIC80: > 1020 µg/mL
[20]
  Activity: 68.7%
Candida albicans [21]
  MIC50: > 1020 µg/mL
  MIC80: > 1020 µg/mL
Candida albicans [22]
  MIC: 1 µg/mL (≈ 3.27 µM)
[23]
  Activity: 15.4%
[24]
  Activity: 14.9%
Candida albicans [25]
  MIC: > 64 µg/mL
Candida albicans [26]
  MIC50: > 1020 µg/mL
  MIC80: > 1020 µg/mL
Candida albicans [27]
  MIC50: > 1020 µg/mL
  MIC80: > 1020 µg/mL
[28]
  Activity: 1.1%
[29]
  Activity: 14.8%
Candida albicans [30]
  MIC50: > 1020 µg/mL
  MIC80: > 1020 µg/mL
Candida albicans [31]
  MIC: > 64 µg/mL
